The values below come from patent US4517003A, “N-acyl phosphoric triamide urease inhibitors and urease inhibited urea based fertilizer compositions” (Allied Corporation, priority 1983, dated 1985).

As usually defined, the % Inhibition is the relative decrease from the control value, in per cent. A higher % Inhibition goes with strong suppression.

One data set has as its system soil urease. The experiment in a line: Urease inhibition efficacy test in soil. As to conditions: Cazenovia silt loam, pH 7.2, incubated at 25° C. for three days, triplicate. The format is biochemical. As for the experimental part: Efficacy tests were conducted to evaluate the efficacy of certain representative phosphoric triamide compounds as urease inhibitors. The inhibition tests were run in a New York soil (Cazenovia silt loam, pH 7.2). […] The bottle was capped with perforated aluminum foil and incubated at 25° C. for three days prior to extraction with 100 mL of a 2M KCl solution containing 0.5 mg of phenylmercuric acetate. The extracts were then analyzed for remaining urea using an autoanalyzer. Percent inhibition was calculated as [formula] Where A is urea recovered from unincubated sample (urea added to soil and immediately extracted); B is urea recovered from inhibited sample; and C is urea recovered from the control (uninhibited sample).

Data set [1] addresses T1, jack bean urease (Sigma, Type IX) (Canavalia ensiformis, UniProt P07374).
T1 construct: purchased Sigma Type IX
The experiment in a line: Jack bean urease inhibition (modified Bremner procedure, homogeneous solution). In kind it is biochemical. As to conditions: for inhibition at 0.01 µM: read-out: % Inhibition at Specific Inhibitor Concentrations 10^-8 M. The method, then: Efficacy tests were also conducted with jack bean urease. The procedure of Bremner (see L. A. Douglas and J. M. Bremner, Soil Biol. Biochem., 3, 859-62 (1970) and references therein) was modified by replacing the soil as the source of urease with commercial purified jack bean urease (Sigma, Type IX). The incubation then proceeds in homogeneous solution.
The prior art compound selected for comparative testing was N-(diaminophosphinyl)-p-chlorobenzamide, and the compounds selected for use in the composition of this invention are N-(diaminophosphinyl)-2,2,2-trichloroacetamide, N-(diaminophosphinyl)-2,2-dichloroacetamide, and N-(diaminophosphinyl)-2-chloroacetamide The test procedure employed was identical to that used in Example VII.

For the next data set, the system named is soil nitrification. The experiment in a line: Nitrification inhibition efficacy test in soil. As to conditions: Cazenovia silt loam pH 7.3, 14 days at 25° C.; for % Inhibition at 40 ug per gram of soil, t14 (Inhibition of Soil Nitrification): diammonium phosphate applied after 14 days (t14); for % Inhibition at 40 ug per gram of soil, t0 (Inhibition of Soil Nitrification): diammonium phosphate applied simultaneously (t0). As for the experimental part:
Efficacy tests were conducted to evaluate the efficacy of certain representative phosphoric triamide compounds as nitrification inhibitors. All compounds were evaluated in Cazenovia silt loam soil (pH 7.3). The evaluations consisted of applying either simultaneously (to) or after 14 days (t14) a solution of 6.00 mg (300 ug/g soil) of diammonium phosphate in 1 mL of water to triplicate 20 g samples of air dry soil contained in 250 mL square glass bottles that had been treated with a solution of either 0 or 0.800 mg (40 ug/g soil) of the test compound in 5 mL of water. Each bottle was capped with perforated aluminum foil, incubated for 14 days at 25° C. after diammonium phosphate application, and then extracted with 100 mL of 2M potassium chloride containing 0.5 mg (5 mg/L) of phenylmercuric acetate. Each extract was allowed to settle, and an aliquot was frozen and then analyzed for nitrate using an autoanalyzer. The percent inhibition obtained during the incubation was calculated by the formula: [formula] where A is the nitrate recovered from unincubated soil before diammonium phosphate addition; B is nitrate recovered from uninhibited soil; and C is nitrate recovered from inhibited soil.
The compounds selected for use in the composition of this invention are N-(diaminophosphinyl)-2,2,2-trichloroacetamide, N-(diaminophosphinyl)-2,2-dichloroacetamide, and N-(diaminophosphinyl)-2-chloroacetamide.

A short description of data set [2]: Solubility in ice-cold water (observation during work-up). In kind it is physicochemical. As for the experimental part: The titled compound was prepared in accordance with the procedure of Example I. Using 2-chloroacetamide (7.02 g, 75 mmol), phosphorus pentachloride (15.6 g, 75 mmol) and formic acid (2.9 mL, […]), were reacted to form 16.0 g of N-(dichlorophosphinyl)-2-chloroacetamide, which was reacted with anhydrous ammonia in ether to form N-(diaminophosphinyl)-2-chloroacetamide.

Setting [3] is: Table II, 10^-6 M inhibitor, jack bean urease, read-out: % Inhibition at Specific Inhibitor Concentration 10^-6 M.
Setting [4] is: Table II, 10^-7 M inhibitor, jack bean urease, read-out: % Inhibition at Specific Inhibitor Concentration 10^-7 M.
Setting [5] is: Table III (comparison with prior art), 10^-6 M inhibitor, jack bean urease, read-out: % Inhibition at Specific Inhibitor Concentrations 10^-6 M.
Setting [6] is: Table III (comparison with prior art), 10^-7 M inhibitor, jack bean urease, read-out: % Inhibition at Specific Inhibitor Concentrations 10^-7 M.

Where two headings read alike, the source gives them in different places.

T1 sequence (P07374 whole entry, looked up): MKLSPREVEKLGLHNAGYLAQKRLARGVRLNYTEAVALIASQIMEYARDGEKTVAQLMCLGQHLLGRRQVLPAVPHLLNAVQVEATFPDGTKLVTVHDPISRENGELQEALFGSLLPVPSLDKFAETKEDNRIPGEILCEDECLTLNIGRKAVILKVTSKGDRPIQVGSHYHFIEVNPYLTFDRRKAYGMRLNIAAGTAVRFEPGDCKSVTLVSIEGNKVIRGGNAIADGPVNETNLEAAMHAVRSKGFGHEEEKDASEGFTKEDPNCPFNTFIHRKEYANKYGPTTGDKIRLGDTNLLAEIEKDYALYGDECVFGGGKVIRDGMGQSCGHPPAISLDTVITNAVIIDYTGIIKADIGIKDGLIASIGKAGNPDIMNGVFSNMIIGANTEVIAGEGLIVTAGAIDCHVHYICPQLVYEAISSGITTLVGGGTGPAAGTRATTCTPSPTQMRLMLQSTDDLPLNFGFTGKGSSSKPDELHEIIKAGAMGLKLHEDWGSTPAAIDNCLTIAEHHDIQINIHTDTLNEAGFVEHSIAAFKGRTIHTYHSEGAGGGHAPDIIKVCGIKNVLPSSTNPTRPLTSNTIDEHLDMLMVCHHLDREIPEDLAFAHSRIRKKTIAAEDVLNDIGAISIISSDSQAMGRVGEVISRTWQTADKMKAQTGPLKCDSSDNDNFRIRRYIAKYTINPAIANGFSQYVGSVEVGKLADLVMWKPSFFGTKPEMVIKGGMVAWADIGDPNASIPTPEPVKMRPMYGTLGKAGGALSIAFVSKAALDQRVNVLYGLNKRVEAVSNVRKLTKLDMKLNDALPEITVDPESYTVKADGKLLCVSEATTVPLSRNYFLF

Consider `NP(N)(=O)NC(=O)C(Cl)Cl` [Example I, N-(Diaminophosphinyl)-2,2-dichloroacetamide], for which, in the data set with soil urease, the “% Inhibition at 40 ug per gram of soil (Inhibition of Soil Urease)” value is recorded as 73%. In addition, the inhibition at 1 µM in data set [1] (setting [3]) and in data set [1] (setting [5]) was 100% throughout. Further, the inhibition at 0.1 µM in data set [1] (setting [4]) was 80 to 100%; in data set [1] (setting [6]), 100%. Besides, the “% Inhibition at 40 ug per gram of soil, t14 (Inhibition of Soil Nitrification)” value in the data set with soil nitrification came out at 9%. For the same compound, the “% Inhibition at 40 ug per gram of soil, t0 (Inhibition of Soil Nitrification)” value with soil nitrification was found to be 18%.

Turning to `NP(N)(=O)NC(=O)C(Cl)(Cl)Cl` [Example III, N-(Diaminophosphinyl)-2,2,2-trichloroacetamide], the “% Inhibition at 40 ug per gram of soil (Inhibition of Soil Urease)” value in the data set on soil urease amounted to 64%. The inhibition at 1 µM in data set [1] (setting [3]) was in the range of 93 to 100%. Moreover, the inhibition at 0.1 µM in data set [1] (setting [4]) worked out at 70%; in data set [1] (setting [6]) it was 78%. Besides, the inhibition at 0.01 µM in data set [1] (Table III (comparison with prior art), 10^-8 M inhibitor, jack bean urease) came out at 13%. For the same compound, the “% Inhibition at 40 ug per gram of soil, t14 (Inhibition of Soil Nitrification)” value with soil nitrification came to 3%. Further, in the data set on soil nitrification, the “% Inhibition at 40 ug per gram of soil, t0 (Inhibition of Soil Nitrification)” value was 47%.

Consider `N#CCC(=O)NP(N)(N)=O` [Example V, N-(Diaminophosphinyl)-2-Cyanoacetamide], for which the inhibition at 1 µM in data set [1] (setting [3]) was 56%.

Turning to `COc1ccc(C(=O)NP(N)(N)=O)cc1` [N-(Diaminophosphinyl)-4-methoxybenzamide, N-(diaminophosphinyl)-4-methoxybenzamide, reference compound], in the data set with soil nitrification, the “% Inhibition at 40 ug per gram of soil, t14 (Inhibition of Soil Nitrification)” value came to 13% and the “% Inhibition at 40 ug per gram of soil, t0 (Inhibition of Soil Nitrification)” value was 4%.

Turning to `NP(N)(=O)NC(=O)c1ccc(Cl)cc1` [N-(Diaminophosphinyl)-p-chlorobenzamide, N-(diaminophosphinyl)-p-chlorobenzamide, reference compound], in data set [1] (read-out: % Inhibition at Specific Inhibitor Concentrations 10^-6 M), the inhibition at 1 µM amounted to 83%. In addition, the inhibition at 0.1 µM in data set [1] (read-out: % Inhibition at Specific Inhibitor Concentrations 10^-7 M) came to 20%. Also, in data set [1], the inhibition at 0.01 µM was found to be 14%.

With `NP(N)(=O)NC(=O)CCl` [Example II, N-(Diaminophosphinyl)-2-chloroacetamide], in the data set on soil urease, the “% Inhibition at 40 ug per gram of soil (Inhibition of Soil Urease)” value is listed as 83%. Moreover, the inhibition at 1 µM in data set [1] (setting [3]) and in data set [1] (setting [5]) was 100% throughout. In addition, the inhibition at 0.1 µM in data set [1] (setting [4]) was 81%; in data set [1] (setting [6]), 50%. The Solubility in water entry in data set [2] is on record as “very soluble even in ice-cold water”. In addition, the “% Inhibition at 40 ug per gram of soil, t14 (Inhibition of Soil Nitrification)” value in the data set with soil nitrification turned out to be 0%. Further, the “% Inhibition at 40 ug per gram of soil, t0 (Inhibition of Soil Nitrification)” value in the data set on soil nitrification stood at 2%.

In the case of `NP(N)(=O)NC(=O)C(F)(F)F` [IV, N-(Diaminophosphinyl)-2,2,2-trifluoroacetamide], the “% Inhibition at 40 ug per gram of soil (Inhibition of Soil Urease)” value with soil urease turned out to be 52%. In addition, the inhibition at 1 µM in data set [1] (setting [3]) was determined as 100%. In addition, in data set [1] (setting [4]), the inhibition at 0.1 µM was determined as 22%.
